Tests used:
[1] = target: novel receptor obtainable from rat forebrain tissue; experiment: Radioligand binding assay, [3H]-Compound A displacement in rat forebrain tissue; settings: competition with [3H]-Compound A (usually 20 nM)
Method: WO 92/22293 (SmithKline Beecham) discloses compounds having anti-convulsant activity, including inter alia the compound (3R, 4S)-6-acetyl-(4-fluorobenzoylamino)-3,4-dihydro-2,2-dimethyl-2H-1-benzopyran-3-ol (hereinafter referred to as Compound A). […] The affinity of test compounds to the novel receptor site is assessed as follows.
Whole forebrain tissue is obtained from rats. The tissue is first homogenised in buffer (usually 50 mM Tris/HCl, pH 7.4). The homogenised tissue is washed by centrifugation and resuspension in the same buffer, then stored at −70° C. until used.
To carry out the radioligand binding assay, aliquots of tissue prepared as above (usually at a concentration of 1-2 mg protein/ml) are mixed with aliquots of [3H]-Compound A dissolved in buffer. The final concentration of [3H]-Compound A in the mixture is usually 20 nM. The mixture is incubated at room temperature for 1 hour. [3H]-Compound A bound to the tissue is then separated from unbound [3H]-Compound A by filtration through Whatman GF/B glass fibre filters. The filters are then washed rapidly with ice-cold buffer. The amount of radioactivity bound to the tissue trapped on the filters is measured by addition of liquid scintillation cocktail to the filters followed by counting in a liquid scintillation counter. […]

[2] = tested on: electrically-induced seizures; experiment: Maximal electroshock seizure threshold (MEST) test; type: in vivo; settings: rat, intravenous route, solution in 20% PEG, 1 mg/kg, tested 30 min post dosing
Method: The maximal electroshock seizure threshold (MEST) test in rodents is particularly sensitive for detecting potential anticonvulsant properties^1. In this model, anticonvulsant agents elevate the threshold to electrically-induced seizures whilst proconvulsants lower the seizure threshold. Rats (naive male, Charles River, U.K. Sprague Dawley strain, 100-150 g) are randomly assigned to groups of 10-20 and dosed orally, intravenously or intraperitoneally at a dose volume of 1 ml/kg with various doses of compound (0.1-300 mg/kg) or vehicle. […] The mean current and standard error required to induce a tonic seizure in 50% (CC50) of the rats in a particular treatment group is determined by the ‘up and down’ method of Dixon and Mood (1948)^2. Statistical comparisons between vehicle- and drug-treated groups are made using the method of Litchfield and Wilcoxon (1949)^3. In control animals the CC50 is usually 20-30 mA. […] If a tonic convulsion does occur, then the current is decreased, and so on until all the animals in the group have been tested. The percentage increase or decrease in CC50 for each group compared to the control is calculated. Studies are carried out using a Hugo Sachs Electronik Constant Current Shock Generator with totally variable control of shock level from 0 to 300 mA and steps of 5-20 mA are usually used. […]

| Structure (SMILES) | pKi value [1] | increase in seizure threshold relative to control [2] | melting point |
| --- | --- | --- | --- |
| CC1(C)Oc2ccc(C(=O)CO)cc2[C@H](NC(=O)c2cc(F)cc(F)c2)[C@H]1O [Example 1, (3R,4S)-4-(3,5-difluorobenzamido)-3,4-dihydro-2,2-dimethyl-3-hydroxy-6-(2-hydroxyacetyl)-2H-1-benzopyran] | 7.35 | 317% | 179.4 °C |
| CC1(C)Oc2ccc(C(=O)CO)cc2[C@H](NC(=O)c2ccc(F)cc2)[C@H]1O [Example 3, (3R,4S)-4-(4-fluorobenzamido)-3,4-dihydro-2,2-dimethyl-3-hydroxy-6-(2-hydroxyacetyl)-2H-1-benzopyran] |  |  | 216 °C |

Source: US6395909B1, “Substituted benzopyran derivatives and their use as anticonvulsants” (priority 1998, dated 2002)
